Values of other authors, collected in US9125814B2, “Biocompatible crosslinked hydrogels, drug-loaded hydrogels and methods of using the same” (Angiotech Pharmaceuticals, Inc., priority 2008, dated 2015).

CCCCN1CCCCC1C(=O)Nc1c(C)cccc1C (racemic) [racemic bupivacaine, 1-butyl-N-(2,6-dimethylphenyl)piperidine-2-carboxamide]
pKa: ~8.1
